Data as given in publication PMC9138505, “Small Molecule 20S Proteasome Enhancer Regulates MYC Protein Stability and Exhibits Antitumor Activity in Multiple Myeloma” (Biomedicines, 2022).
Values joined by “and” are separate entries in the source; they are usually repeats but may differ in a detail not shown here. Identical values can stand only once.

Tested on: RPMI-8226 cells
Assay: Gene expression profiling, NanoString nCounter PanCancer Pathways Panel, ROSALIND analysis
Format: cell-based, human
Conditions: RPMI-8226, TCH-165 samples 1-3
Description: RPMI-8226 cells were treated with vehicle or TCH-165 (10 μM) for 4 h. Total RNA was obtained using the mirVana miRNA Isolation Kit, with phenol (Thermofisher Scientific; AM1560; Waltham, MA, USA). Total RNA was quantified by Qubit (Thermofisher Scientific; Q32855; Waltham, MA, USA). and gene expression was evaluated against the nCounter® PanCancer Pathways Panel^TM according to the standard NanoString protocol.
Data were analyzed by ROSALIND® [36] with a hyperscale architecture developed by ROSALIND, Inc. (San Diego, CA, USA). Normalization, fold changes and p-values were calculated using criteria provided by NanoString. ROSALIND follows the nCounter® Advanced Analysis protocol of dividing counts within a lane by the geometric mean of the normalizer probes from the same lane. Housekeeping probes to be used for normalization are selected based on the geNorm algorithm, as implemented in the NormqPCR R library. Fold changes and p-values are calculated using the fast method as described in the nCounter Advanced Analysis 2.0 User Manual. The p-value adjustment is performed using the Benjamini–Hochberg method of estimating false discovery rates (FDR). Clustering of genes for the final heatmap of differentially expressed genes was done using the PAM (Partitioning Around Medoids) method using the fpc R library. Hypergeometric distribution was used to analyze the enrichment of pathways, gene ontology, domain structure and other ontologies. The topGO R library was used to determine local similarities and dependencies between GO terms in order to perform Elim pruning correction. Several database sources were referenced for enrichment analysis, including Interpro [40], NCBI [41], MSigDB [42, 43], REACTOME [44], WikiPathways. Enrichment was calculated relative to a set of background genes relevant to the experiment.

SMILES: CCOC(=O)[C@]1(c2ccccc2)N=C(c2ccc(OC)cc2)N(Cc2ccccc2)[C@@H]1c1ccc(NCc2ccccc2)cc1 [TCH-165]
- HRAS normalized gene expression: 7.087 and 7.184 and 7.0682
- HSP90B1 normalized gene expression: 11.9809 and 12.0196 and 12.0083
- HSPA1A normalized gene expression: 6.793 and 6.667 and 6.528
- HSPA2 normalized gene expression: 5.259 and 4.962 and 5.39
- HSPA6 normalized gene expression: 8.169 and 8.132 and 8.184
- HSPB1 normalized gene expression: 10.6744 and 10.4282 and 10.4272
- IBSP normalized gene expression: 4.101 and 4.427 and 3.5707
- ID1 normalized gene expression: 7.234 and 7.077 and 7.39
- ID2 normalized gene expression: 8.252 and 8.085 and 8.156
- ID4 normalized gene expression: 5.308 and 4.962 and 4.5707
- IDH1 normalized gene expression: 8.037 and 7.944 and 8.087
- IDH2 normalized gene expression: 10.7214 and 10.6097 and 10.5399
- IFNA2 normalized gene expression: 4.793 and 5.029 and 4.876
- IFNA7 normalized gene expression: 4.208 and 3.891 and 3.653
- IFNA17 normalized gene expression: 5.445 and 5.817 and 5.712
- IFNG normalized gene expression: 4.723 and 3.739 and 3.731
- IGF1R normalized gene expression: 9.24 and 9.089 and 9.141
- IGF1 normalized gene expression: 5.686 and 5.427 and 5.0682
- IGFBP3 normalized gene expression: 11.5972 and 11.5942 and 11.578
- IKBKB normalized gene expression: 7.271 and 7.249 and 6.85
- IKBKG normalized gene expression: 8.189 and 8.037 and 8.156
- IL1A normalized gene expression: 4.208 and 4.154 and 4.0682
- IL1B normalized gene expression: 5.044 and 4.427 and 4.805
- IL1R1 normalized gene expression: 4.723 and 4.27 and 4.1271
- IL1RAP normalized gene expression: 6.044 and 5.927 and 6.0682
- IL2RA normalized gene expression: 4.571 and 4.27 and 4.291
- IL2RB normalized gene expression: 4.101 and 3.891 and 4.437
- IL3RA normalized gene expression: 6.378 and 6.614 and 6.197
- IL3 normalized gene expression: 5.61 and 4.996 and 5.211
- IL5RA normalized gene expression: 6.182 and 6.2133 and 6.211
- IL6R normalized gene expression: 6.156 and 6.045 and 5.926
- IL6 normalized gene expression: 4.308 and 3.476 and 3.0682
- IL7R normalized gene expression: 4.571 and 4.569 and 4.528
- IL7 normalized gene expression: 4.101 and 4.739 and 4.805
- IL10 normalized gene expression: 5.892 and 6.27 and 6.238
- IL11RA normalized gene expression: 4.649 and 4.476 and 3.291
- IL11 normalized gene expression: 4.208 and 4.324 and 4.341
- IL12A normalized gene expression: 2.986 and 2.739 and 2.943
- IL12B normalized gene expression: 4.86 and 4.657 and 4.613
- IL12RB2 normalized gene expression: 4.401 and 3.476 and 3.39
- IL13RA2 normalized gene expression: 3.86 and 3.962 and 3.39
- IL13 normalized gene expression: 3.986 and 4.699 and 4.653
- IL15 normalized gene expression: 3.986 and 3.962 and 4.0682
- IL19 normalized gene expression: 5.044 and 4.855 and 5.0068
- IL20RA normalized gene expression: 4.101 and 3.739 and 4.0682
- IL20RB normalized gene expression: 5.892 and 5.836 and 5.613
- IL23A normalized gene expression: 6.355 and 5.979 and 6.038
- IL24 normalized gene expression: 4.208 and 5.427 and 4.876
- INHBA normalized gene expression: 4.793 and 4.569 and 4.0682
- INHBB normalized gene expression: 5.53 and 5.927 and 5.75
- IRAK2 normalized gene expression: 5.892 and 5.524 and 5.893
- IRAK3 normalized gene expression: 5.156 and 5.029 and 4.805
- IRS1 normalized gene expression: 5.308 and 4.996 and 4.805
- ITGA2 normalized gene expression: 3.723 and 3.657 and 3.731
- ITGA3 normalized gene expression: 7.115 and 6.979 and 6.693
- ITGA6 normalized gene expression: 5.259 and 5.242 and 4.653
- ITGA7 normalized gene expression: 4.208 and 4.154 and 4.943
- ITGA8 normalized gene expression: 5.488 and 4.891 and 5.098
- ITGA9 normalized gene expression: 4.86 and 4.996 and 4.437
- ITGB3 normalized gene expression: 3.401 and 2.739 and 3.731
- ITGB4 normalized gene expression: 5.308 and 5.184 and 5.0682
- ITGB6 normalized gene expression: 5.571 and 5.2133 and 5.291
- ITGB7 normalized gene expression: 14.1153 and 14.105 and 14.0545
- ITGB8 normalized gene expression: 6.445 and 6.452 and 6.602
- JAG1 normalized gene expression: 8.08 and 7.864 and 7.85
- JAG2 normalized gene expression: 7.169 and 7.476 and 7.455
- JAK1 normalized gene expression: 9.467 and 9.41 and 9.414
- JAK2 normalized gene expression: 6.331 and 6.311 and 6.4021
- JUN normalized gene expression: 8.667 and 8.646 and 8.78
- KAT2B normalized gene expression: 7.955 and 8.18 and 8.102
- KDM5C normalized gene expression: 9.094 and 8.985 and 8.924
- KDM6A normalized gene expression: 4.401 and 4.029 and 3.943
- KIT normalized gene expression: 5.101 and 4.739 and 4.528
- KITLG normalized gene expression: 4.649 and 4.739 and 4.5707
- KLF4 normalized gene expression: 4.308 and 4.996 and 4.769
- KMT2D normalized gene expression: 8.115 and 8.314 and 8.228
- KRAS normalized gene expression: 11.0766 and 10.9767 and 10.9365
- LAMA3 normalized gene expression: 5.308 and 5.324 and 5.1271
- LAMA5 normalized gene expression: 5.986 and 5.739 and 5.693
- LAMB3 normalized gene expression: 6.234 and 6.169 and 6.1271
- LAMB4 normalized gene expression: 4.401 and 4.029 and 3.731
- LAMC2 normalized gene expression: 3.723 and 3.27 and 3.731
- LAMC3 normalized gene expression: 5.649 and 4.996 and 4.693
- LAT normalized gene expression: 5.723 and 5.927 and 5.366
- LEF1 normalized gene expression: 3.86 and 2.891 and 2.291
- LEFTY1 normalized gene expression: 5.723 and 4.855 and 5.0068
- LEFTY2 normalized gene expression: 6.571 and 6.657 and 6.814
- LEP normalized gene expression: 5.259 and 4.855 and 4.291
- LEPR normalized gene expression: 6.401 and 5.817 and 6.378
- LFNG normalized gene expression: 5.758 and 5.2133 and 4.805
- LIF normalized gene expression: 5.259 and 5.029 and 5.156
